# Assay results reported in patent US10619182B2, “Method, device and system for testing drug sensitivity” (HITACHI, LTD., priority 2014, dated 2020).
# How the values were obtained:
# Format in all cases: cell-based
# E. coli = experiment: Time-dependent change in live and dead bacteria ATP luminescence amount (Methods (1) to (4))
# Description: Next, a method for measuring ATP derived from the live bacteria and the dead bacteria will be described with reference to FIG. 2. A live bacteria ATP method in Method (1) is used in eliminating ATP5 outside a bacterial cell so as to measure ATP2000 included in the cell membrane of the live bacterium 2 and ATP3000 included in the cell membrane of the dead bacterium 3 having no damage to the cell membrane. A submerged ATP method in Method (2) is used in measuring the dead bacteria 4 having the damaged cell membrane and the free ATP5 in the culture liquid 1 while the bacterial cells of the live bacterium 2 and the dead bacteria 3 and 4 are included. The dead bacterium 4 serves as a measurement target, since a substrate and enzyme of enzyme luciferase reaction which are bioluminescent molecules (to be described later) enter the dead bacterium 4 from a damaged site. […]
# Next, a result example obtained in such a way that E. coli as an example is processed according to Methods (1) to (4) so as to measure an ATP amount will be described with reference to FIGS. 4a and 4b. […] The luciferase oxidizes luciferin which serves as a substrate in the presence of ATP and Mg^2+ inside the bacteria, and a luminescence amount generated at that time is proportional to the ATP amount. Accordingly, bacteria growth is evaluated, based on a change in the luminescence amount.
# In the present embodiment, the luminescence amount is represented by integration of a photon count value of 60 sec, and the unit is defined as the luminescence amount (amount of luminescence (a.u.)). As described above, the luminescence amount and the ATP amount are in a proportional relationship. In a case where the luminescence amount increases, it is determined that the ATP amount increases.
# FIG. 4a illustrates a result obtained by culturing E. coli on the absence of antibiotics. […] If the results in FIGS. 4a and 4b are compared with each other, in FIG. 4a, according to the live bacteria ATP method in Method (1), the luminescence amount increases with the lapse of the culture time until four hours of the culture time. […]
# [1] = system: Staphylococcus aureus (ATCC25923); experiment: Antimicrobial susceptibility test using the ATP method (dead bacteria ATP / live bacteria ATP ratio); settings: S. aureus, ABPC 0.25 μg/mL, LVFX 0.125 μg/mL, FIG. 12
# Protocol: (§1) In this experiment, Escherichia coli (ATCC25922 strain; hereinafter, referred to as E. coli) and Staphylococcus aureus (ATCC25923; hereinafter, referred to as S. aureus) are used as the bacterial cell. An antimicrobial susceptibility test using the ATP method is carried out for both of these. As antibiotics, ampicillin and levofloxacin (hereinafter, referred to as LVFX) are used. First, the bacterial cells are cultured overnight on an LB agar medium, and the next day, a colony is suspended in a Mueller-Hinton (hereinafter, referred to as MH) medium, thereby preparing a bacterial suspension prepared in 0.5 McFarland. Next, the bacterial suspension diluted 500 times in the MH medium is distributed as much as each 50 μL to the plate to which the MH medium containing the antibiotic whose concentration is twice the final concentration is distributed in advance as much as each 50 μL. The static culture is carried out at 37° C. for a certain period of time, and the bacterial suspension is prepared. For the final concentration of the antibiotic, ABPC is set to 4 μg/mL and LVFX is set to 0.125 μg/mL in a case where E. coli is a measurement target. In a case where S. aureus is a measurement target, ABPC is set to 0.25 μg/mL and LVFX is set to 0.125 μg/mL. The bacterial cells are compared with the bacterial cells cultured in the MH medium having no antibiotic contained therein. The live bacteria ATP is prepared by mixing 2 μL of the ATP eliminating solution with 18 μL of the above-described bacteria culture liquid, and the mixture is left static at room temperature for 30 minutes. Thereafter, 20 μL of the ATP extracting reagent is mixed therewith, and the mixture is left static at room temperature for one minute so as to prepare the live bacteria ATP. The dead bacteria ATP is prepared by adding the bacteria culture liquid onto a filter (membrane pore size 0.22 μm). The filtrate obtained through filtering using centrifugation is used as the dead bacteria ATP. The luminescence reagent is added to the prepared live bacteria ATP or dead bacteria ATP, and is subjected to photon counting for one minute. The obtained luminescence amount (amount of luminescence (a.u.)) is used as an index of the ATP amount. According to the above-described experiment, a luminescence amount ratio between the dead ATP luminescence amount and the live ATP luminescence amount is obtained. FIGS. 11 and 12 illustrate a result obtained by calculating the luminescence amount ratio as an amount ratio between the live bacteria ATP and the dead bacteria ATP.
# [2] = system: Escherichia coli (ATCC25922 strain); experiment: as above; settings: E. coli, ABPC 4 μg/mL, LVFX 0.125 μg/mL, FIG. 11
# Protocol: as §1
smiles,measurement,setting,value
"CC1(C)S[C@@H]2[C@H](NC(=O)[C@H](N)c3ccccc3)C(=O)N2[C@H]1C(=O)O [ABPC, ampicillin]",luminescence amount according to submerged ATP method (2) to total ATP method (4),"E. coli; E. coli cultured in the presence of 8 μg/mL ampicillin, FIG. 4b",increases or does not vary greatly
same,luminescence amount of the live bacteria ATP according to Method (1),"E. coli; E. coli cultured in the presence of 8 μg/mL ampicillin, after three hours of culture, FIG. 4b",decreases with the lapse of the culture time
same,action of the antibiotic on growth of live bacteria,"E. coli; E. coli, 8 μg/mL ampicillin, during four hours of the culture time",stops the growth of the live bacteria so as to kill the bacteria with the lapse of time
same,time after start of antimicrobial susceptibility culture at which the effect can be determined (ratio dead bacteria ATP/live bacteria ATP = 1),[1],approximately two and a half
same,ratio of the dead bacteria ATP amount/the live bacteria ATP amount as the culture time elapses,"[1]; MH medium, 37° C.",increases
same,time after start of antimicrobial susceptibility culture at which the effect can be determined (ratio dead bacteria ATP/live bacteria ATP = 1),[2],approximately three
same,ratio of the dead bacteria ATP amount/the live bacteria ATP amount as the culture time elapses,"[2]; MH medium, 37° C.",increases
